The C3SDB collision cross section collection
Where “and” joins values, the source holds several entries; their conditions need not be identical. Equal values may be shown once.

Conditions: [M+Na]+; instrument: DT; stepped-field

Q: With `CC/C=C\C/C=C\C/C=C\C/C=C\C/C=C\CCCC(=O)OC[C@H](COP(=O)([O-])OCC[N+](C)(C)C)OC(=O)CCC/C=C\C/C=C\C/C=C\C/C=C\C/C=C\CC` [PC(40:10)] as the compound, how does the “collision cross section (N2)” value read?
A: The value was 301.5 Å².

Q: Which “collision cross section (N2)” value does the source give for `CCCC/C=C\CCCCCCCC(=O)OC[C@H](COP(=O)(O)OCCN)OC(=O)CCCCC/C=C\C/C=C\C/C=C\C/C=C\CCCCC` [PE(36:5)] here?
A: Its value is 278.2 Å².

Q: Which “collision cross section (N2)” value does the source give for `CC/C=C\C/C=C\C/C=C\C/C=C\CCCCC(=O)O[C@H](COC(=O)CCCCCCC/C=C\C/C=C\CCCCC)COP(=O)(O)OCCN` [PE(36:6)] here?
A: The value was 276.3 Å².

Q: For `CC/C=C\C/C=C\C/C=C\C/C=C\CCCCC(=O)O[C@H](COC(=O)CCC/C=C\C/C=C\C/C=C\C/C=C\CCCCC)COP(=O)(O)OCCN` [PE(38:8)], which “collision cross section (N2)” value is on record?
A: Its value is 281.9 Å².

Q: With `CCCCC/C=C\C/C=C\C/C=C\C/C=C\CCCCCC(=O)O[C@H](COC(=O)CCCCCCCCCCCCCCCC)COP(=O)(O)OCCN` [PE(39:4)] as the compound, how does the “collision cross section (N2)” value read?
A: Its value is 292.8 Å².

Q: Which “collision cross section (N2)” value does the source give for `CC/C=C\C/C=C\C/C=C\C/C=C\C/C=C\CCCC(=O)O[C@H](COC(=O)CCCCCCCCC/C=C\C/C=C\CCCCC)COP(=O)(O)OCCN` [PE(40:7)] here?
A: Its value is 290.8 Å².

Q: For `CC/C=C\C/C=C\C/C=C\C/C=C\CCCCC(=O)O[C@H](COCCCCCCCCCCCCCCCC)COP(=O)(O)OCCN` [PE(o34:4)], which “collision cross section (N2)” value is on record?
A: The value was 275.9 Å².

Q: Which “collision cross section (N2)” value does the source give for `CCCCC/C=C\C/C=C\C/C=C\C/C=C\CCCC(=O)O[C@H](COC(=O)CCCCCCCCCCCCCCC)COP(=O)(O)OC[C@H](N)C(=O)O` [PS(36:4)] here?
A: The value was 287.8 Å².

Q: Which “collision cross section (N2)” value does the source give for `CC/C=C\C/C=C\C/C=C\C/C=C\C/C=C\C/C=C\CCC(=O)OC[C@H](COP(=O)(O)OC[C@H](N)C(=O)O)OC(=O)CCCCCCC/C=C\CCCCCCC` [PS(39:7)] here?
A: Its value is 293.1 Å².

Q: With `CC/C=C\C/C=C\C/C=C\C/C=C\C/C=C\C/C=C\CCC(=O)OC[C@H](COP(=O)(O)OC[C@H](N)C(=O)O)OC(=O)CCCCCCC/C=C\CCCCCCCCC` [PS(41:7)] as the compound, how does the “collision cross section (N2)” value read?
A: Its value is 299.2 Å².

Q: With `CC/C=C\C/C=C\C/C=C\C/C=C\C/C=C\CCCC(=O)OC[C@H](COP(=O)(O)OC[C@H](N)C(=O)O)OC(=O)CCCCCCCCCCC/C=C\C/C=C\CCCCC` [PS(42:7)] as the compound, how does the “collision cross section (N2)” value read?
A: Its value is 304.7 Å².

Q: Which “collision cross section (N2)” value does the source give for `CCC=CCC=CCC=CCC=CCC=CCC=CCC(=O)OC[C@H](COP(=O)(O)OC[C@H](N)C(=O)O)OC(=O)CC=CCC=CCC=CCC=CCC=CCC=CCC` [PS(42:12)] here?
A: Its value is 293.7 Å².

Q: For `CCCCC/C=C\C/C=C\C/C=C\C/C=C\CCCCCC(=O)O[C@H](COC(=O)CCCCCCCCC/C=C\CCCCCCCCCC)COP(=O)(O)OC[C@H](N)C(=O)O` [PS(44:5)], which “collision cross section (N2)” value is on record?
A: Its value is 311.5 Å².

Q: For `CC/C=C\C/C=C\C/C=C\C/C=C\C/C=C\C/C=C\CCC(=O)OC[C@H](COP(=O)(O)OC[C@H](N)C(=O)O)OC(=O)CCCCCCCCC/C=C\CCCCCCCCCC` [PS(44:7)], which “collision cross section (N2)” value is on record?
A: Its value is 311.8 Å².

Q: Which “collision cross section (N2)” value does the source give for `CCCCC/C=C\C/C=C\C/C=C\C/C=C\CCCCCC(=O)OC[C@H](COP(=O)(O)OC[C@H](N)C(=O)O)OC(=O)CCCCC/C=C\C/C=C\C/C=C\C/C=C\CCCCC` [PS(44:8)] here?
A: Its value is 306.8 Å².

Q: Which “collision cross section (N2)” value does the source give for `CC/C=C\C/C=C\C/C=C\C/C=C\C/C=C\C/C=C\CCC(=O)OC[C@H](COP(=O)(O)OC[C@H](N)C(=O)O)OC(=O)CC/C=C\C/C=C\C/C=C\C/C=C\C/C=C\C/C=C\CC` [PS(44:12)] here?
A: Its value is 299.7 Å².

Q: For `CCCCCCCCCCC=CCC=CCC=CCC=CCC(=O)OC[C@H](COP(=O)(O)OC[C@H](N)C(=O)O)OC(=O)CC=CCC=CCC=CCC=CCCCCCCCCCC` [PS(46:8)], which “collision cross section (N2)” value is on record?
A: Its value is 313.2 Å².

Q: Which “collision cross section (N2)” value does the source give for `OC[C@H]1OC(OC[C@H]2OC(O[C@]3(CO)O[C@H](CO)[C@@H](O)[C@@H]3O)[C@H](O)[C@@H](O)[C@@H]2O)[C@H](O)[C@@H](O)[C@H]1O` (stereo partly specified) [Raffinose] here?
A: Its value is 210.7 Å².

Q: Which “collision cross section (N2)” value does the source give for `CCCCCCCCCCCCC=CC[C@@H](O)[C@H](COP(=O)([O-])OCC[N+](C)(C)C)NC(=O)CCCCCCCCCCCCCCCCCCCCCCCCC` [SM(44:1)] here?
A: The value was 315.1 Å².

Q: With `CCCCCCCCCCCCC=CC[C@@H](O)[C@H](COP(=O)([O-])OCC[N+](C)(C)C)NC(=O)CC=CCC=CCCCCCCCCCCCCCCCCCCC` [SM(44:3)] as the compound, how does the “collision cross section (N2)” value read?
A: Its value is 312 Å².

Same assay, conditions: [M+Rb]+; instrument: DT; stepped-field

Q: Which “collision cross section (N2)” value does the source give for `OC[C@H]1O[C@@](CO)(O[C@H]2O[C@H](CO)[C@@H](O)[C@H](O)[C@H]2O)[C@@H](O[C@H]2O[C@H](CO)[C@@H](O)[C@H](O)[C@H]2O)[C@@H]1O` [Melezitose] here?
A: The value was 204.1 Å² and 219.2 Å².

Q: Which “collision cross section (N2)” value does the source give for `OC[C@H]1OC(OC[C@H]2OC(O[C@]3(CO)O[C@H](CO)[C@@H](O)[C@@H]3O)[C@H](O)[C@@H](O)[C@@H]2O)[C@H](O)[C@@H](O)[C@H]1O` (stereo partly specified) [Raffinose] here?
A: The value was 218.7 Å² and 229.7 Å².

Same assay, conditions: [M]+; instrument: DT; stepped-field

Q: Which “collision cross section (N2)” value does the source give for `CCCCCC[N+](CCCCCC)(CCCCCC)CCCCCC` [TAA6] here?
A: The value was 213.5 Å².

Q: Which “collision cross section (N2)” value does the source give for `CCCCCCCC[N+](CCCCCCCC)(CCCCCCCC)CCCCCCCC` [TAA8] here?
A: Its value is 256.6 Å².

Q: With `CCCCCCCCCC[N+](CCCCCCCCCC)(CCCCCCCCCC)CCCCCCCCCC` [TAA10] as the compound, how does the “collision cross section (N2)” value read?
A: Its value is 293.5 Å².

Q: For `CCCCCCCCCCCCCCCC[N+](CCCCCCCCCCCCCCCC)(CCCCCCCCCCCCCCCC)CCCCCCCCCCCCCCCC` [TAA16], which “collision cross section (N2)” value is on record?
A: The value was 361.5 Å².
